Test results from ChEMBL document CHEMBL4507273 (2021).

Key:
[1] = target: Cyclin-dependent kinase 13 (Homo sapiens) (UniProt Q14004); conditions: Compound concentration 1000.0 nM
[2] = target: Tyrosine-protein kinase ABL1 (Homo sapiens) (UniProt P00519); conditions: Compound concentration 1000.0 nM
[3] = target: Protein kinase C theta type (Homo sapiens) (UniProt Q04759); conditions: Compound concentration 1000.0 nM
[4] = target: Mitogen-activated protein kinase kinase kinase 9 (Homo sapiens) (UniProt P80192); conditions: Compound concentration 1000.0 nM
[5] = target: T1, Muscarinic acetylcholine receptor M5 (Homo sapiens, UniProt P08912); assay: GPCRScan assay: inhibition of M5; parameters: radioligand conc. used [nm] 0.2 – 1.0, parental cells stable CHO
T1 sequence (P08912 whole entry): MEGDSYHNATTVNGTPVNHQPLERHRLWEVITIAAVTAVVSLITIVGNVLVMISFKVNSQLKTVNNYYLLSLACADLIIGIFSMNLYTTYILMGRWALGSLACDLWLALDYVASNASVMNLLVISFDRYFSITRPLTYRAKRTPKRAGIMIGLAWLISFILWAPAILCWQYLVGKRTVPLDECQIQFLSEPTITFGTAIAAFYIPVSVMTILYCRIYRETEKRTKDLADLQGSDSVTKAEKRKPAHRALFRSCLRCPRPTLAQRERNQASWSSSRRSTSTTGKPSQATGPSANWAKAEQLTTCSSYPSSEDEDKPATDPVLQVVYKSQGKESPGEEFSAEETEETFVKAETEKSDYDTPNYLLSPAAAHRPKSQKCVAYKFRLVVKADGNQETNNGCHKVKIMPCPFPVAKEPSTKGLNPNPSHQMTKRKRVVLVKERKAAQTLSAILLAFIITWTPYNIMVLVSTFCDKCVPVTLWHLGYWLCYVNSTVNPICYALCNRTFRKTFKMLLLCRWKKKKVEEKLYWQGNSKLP

[6] = target: Serine/threonine-protein kinase 35 (Homo sapiens) (UniProt Q8TDR2); conditions: Compound concentration 1000.0 nM
[7] = target: Mitogen-activated protein kinase kinase kinase kinase 2 (Homo sapiens) (UniProt Q12851); conditions: Compound concentration 1000.0 nM
[8] = target: Serine/threonine-protein kinase MARK2 (Homo sapiens) (UniProt Q7KZI7); conditions: Compound concentration 1000.0 nM
Sequence of Serine/threonine-protein kinase MARK2 (Homo sapiens) (Q7KZI7 whole entry): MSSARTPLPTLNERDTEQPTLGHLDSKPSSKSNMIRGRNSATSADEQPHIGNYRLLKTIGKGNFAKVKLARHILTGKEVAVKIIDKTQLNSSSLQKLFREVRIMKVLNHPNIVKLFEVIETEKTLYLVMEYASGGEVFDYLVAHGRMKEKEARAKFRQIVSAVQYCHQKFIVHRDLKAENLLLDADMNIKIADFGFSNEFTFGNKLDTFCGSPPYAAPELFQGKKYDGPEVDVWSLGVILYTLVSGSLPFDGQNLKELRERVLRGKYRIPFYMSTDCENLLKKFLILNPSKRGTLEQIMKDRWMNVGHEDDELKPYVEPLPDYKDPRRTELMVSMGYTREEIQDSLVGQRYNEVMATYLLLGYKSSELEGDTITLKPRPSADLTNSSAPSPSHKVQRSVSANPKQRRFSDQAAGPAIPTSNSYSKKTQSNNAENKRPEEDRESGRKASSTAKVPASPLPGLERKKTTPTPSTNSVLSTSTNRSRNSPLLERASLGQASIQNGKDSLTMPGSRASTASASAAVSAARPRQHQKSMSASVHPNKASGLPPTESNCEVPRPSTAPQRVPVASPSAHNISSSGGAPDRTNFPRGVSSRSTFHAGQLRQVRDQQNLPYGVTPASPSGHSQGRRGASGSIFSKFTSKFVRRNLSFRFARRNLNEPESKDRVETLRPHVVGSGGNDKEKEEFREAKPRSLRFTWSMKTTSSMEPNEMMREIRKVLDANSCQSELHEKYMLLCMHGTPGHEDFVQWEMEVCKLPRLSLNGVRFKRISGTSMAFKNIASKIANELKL

[9] = target: Dual specificity mitogen-activated protein kinase kinase 2 (Homo sapiens) (UniProt P36507); conditions: Compound concentration 1000.0 nM
[10] = target: T2, Alpha-2B adrenergic receptor (Homo sapiens) (UniProt P18089); conditions: Compound concentration 10.0 uM
T2 sequence (whole entry): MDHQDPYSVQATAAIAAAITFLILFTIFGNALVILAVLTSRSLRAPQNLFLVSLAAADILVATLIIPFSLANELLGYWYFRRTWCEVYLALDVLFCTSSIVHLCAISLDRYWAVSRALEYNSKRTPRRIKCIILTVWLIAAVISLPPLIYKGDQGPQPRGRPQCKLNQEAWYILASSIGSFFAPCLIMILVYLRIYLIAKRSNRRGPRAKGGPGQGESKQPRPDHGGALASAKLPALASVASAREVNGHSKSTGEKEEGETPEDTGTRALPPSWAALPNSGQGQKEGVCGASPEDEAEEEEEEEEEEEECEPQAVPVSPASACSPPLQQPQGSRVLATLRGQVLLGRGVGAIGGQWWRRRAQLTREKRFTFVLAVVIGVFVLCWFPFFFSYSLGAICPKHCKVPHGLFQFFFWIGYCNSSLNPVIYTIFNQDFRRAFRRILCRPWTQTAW

[11] = target: TRAF2 and NCK-interacting protein kinase (Homo sapiens) (UniProt Q9UKE5); conditions: Compound concentration 1000.0 nM
[12] = test system: eIF-2-alpha kinase GCN2 (Homo sapiens), Q9P2K8 [S808G]; conditions: Compound concentration 1000.0 nM
[13] = target: Calcium/calmodulin-dependent protein kinase type IV (Homo sapiens) (UniProt Q16566); conditions: Compound concentration 1000.0 nM
[14] = target: Serine/threonine-protein kinase pim-3 (Homo sapiens) (UniProt Q86V86); conditions: Compound concentration 1000.0 nM
[15] = target: Serine/threonine-protein kinase DCLK1 (Homo sapiens) (UniProt O15075); conditions: Compound concentration 1000.0 nM
[16] = test system: Receptor-type tyrosine-protein kinase FLT3 (Homo sapiens), P36888 [D835V]; conditions: Compound concentration 1000.0 nM
[17] = target: T3, Alpha-1A adrenergic receptor (Homo sapiens, UniProt P35348); assay: GPCRScan assay: inhibition of Alpha1A; parameters: radioligand conc. used [nm] 0.2 - 1.0, parental cells stable HEK
T3 sequence (P35348 whole entry): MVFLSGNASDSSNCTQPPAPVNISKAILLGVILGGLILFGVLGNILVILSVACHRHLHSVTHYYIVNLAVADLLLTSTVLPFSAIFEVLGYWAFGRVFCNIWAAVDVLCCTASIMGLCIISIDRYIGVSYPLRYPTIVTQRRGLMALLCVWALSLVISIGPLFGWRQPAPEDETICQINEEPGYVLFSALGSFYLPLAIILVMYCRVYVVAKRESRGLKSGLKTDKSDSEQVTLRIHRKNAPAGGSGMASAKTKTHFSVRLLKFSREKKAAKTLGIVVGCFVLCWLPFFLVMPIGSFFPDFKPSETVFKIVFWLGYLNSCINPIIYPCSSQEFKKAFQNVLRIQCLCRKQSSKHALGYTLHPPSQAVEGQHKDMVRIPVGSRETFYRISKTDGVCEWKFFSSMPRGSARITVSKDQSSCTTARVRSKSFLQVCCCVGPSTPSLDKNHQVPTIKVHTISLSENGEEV

[18] = target: Serine/threonine-protein kinase MRCK beta (Homo sapiens) (UniProt Q9Y5S2); conditions: Compound concentration 1000.0 nM
[19] = target: Ephrin type-A receptor 7 (Homo sapiens) (UniProt Q15375); conditions: Compound concentration 1000.0 nM
Sequence of Ephrin type-A receptor 7 (Homo sapiens) (Q15375 28-998 limits assumed): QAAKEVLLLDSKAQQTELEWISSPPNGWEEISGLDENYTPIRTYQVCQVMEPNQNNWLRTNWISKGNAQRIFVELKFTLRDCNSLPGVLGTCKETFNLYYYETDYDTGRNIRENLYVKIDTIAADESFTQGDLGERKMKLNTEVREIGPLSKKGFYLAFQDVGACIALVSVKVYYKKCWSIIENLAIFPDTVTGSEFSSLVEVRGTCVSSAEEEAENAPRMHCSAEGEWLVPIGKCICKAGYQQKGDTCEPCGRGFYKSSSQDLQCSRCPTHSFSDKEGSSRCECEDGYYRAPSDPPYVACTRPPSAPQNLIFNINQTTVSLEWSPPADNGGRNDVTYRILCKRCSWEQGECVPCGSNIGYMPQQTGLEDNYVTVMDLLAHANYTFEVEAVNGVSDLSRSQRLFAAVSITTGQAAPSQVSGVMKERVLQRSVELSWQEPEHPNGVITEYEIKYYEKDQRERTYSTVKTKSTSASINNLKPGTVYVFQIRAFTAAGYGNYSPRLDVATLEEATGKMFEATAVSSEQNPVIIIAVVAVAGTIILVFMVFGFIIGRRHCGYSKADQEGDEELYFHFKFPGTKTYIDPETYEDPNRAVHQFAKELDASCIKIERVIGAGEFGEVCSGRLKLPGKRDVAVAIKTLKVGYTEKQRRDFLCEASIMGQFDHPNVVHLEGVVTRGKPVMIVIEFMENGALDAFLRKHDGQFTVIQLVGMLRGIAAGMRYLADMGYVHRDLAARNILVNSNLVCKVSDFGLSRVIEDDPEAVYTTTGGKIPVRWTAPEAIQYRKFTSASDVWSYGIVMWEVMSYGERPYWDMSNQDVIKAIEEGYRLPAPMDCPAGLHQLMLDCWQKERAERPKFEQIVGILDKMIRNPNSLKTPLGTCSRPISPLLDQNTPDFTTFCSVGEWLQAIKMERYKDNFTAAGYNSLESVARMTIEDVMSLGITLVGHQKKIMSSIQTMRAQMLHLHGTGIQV

[20] = target: Fibroblast growth factor receptor 1 (Homo sapiens) (UniProt P11362); conditions: Compound concentration 1000.0 nM
Histamine H4 receptor = Histamine H4 receptor (Homo sapiens, UniProt Q9H3N8); conditions: Compound concentration 10.0 uM
Sequence of Histamine H4 receptor (Q9H3N8 whole entry): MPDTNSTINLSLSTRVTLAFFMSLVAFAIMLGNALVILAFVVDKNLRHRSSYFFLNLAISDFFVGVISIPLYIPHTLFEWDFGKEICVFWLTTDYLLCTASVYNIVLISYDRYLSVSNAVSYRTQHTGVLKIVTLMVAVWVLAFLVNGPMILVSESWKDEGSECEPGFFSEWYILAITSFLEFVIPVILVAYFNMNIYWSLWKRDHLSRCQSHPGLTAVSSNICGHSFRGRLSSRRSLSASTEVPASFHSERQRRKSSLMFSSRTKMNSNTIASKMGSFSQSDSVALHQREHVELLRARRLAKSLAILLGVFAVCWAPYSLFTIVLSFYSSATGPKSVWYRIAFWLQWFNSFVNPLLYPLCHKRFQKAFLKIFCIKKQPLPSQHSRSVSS

[21] = target: Cyclin-dependent kinase 11A (Homo sapiens) (UniProt Q9UQ88); conditions: Compound concentration 1000.0 nM
[22] = target: Sigma non-opioid intracellular receptor 1 (Homo sapiens) (UniProt Q99720); conditions: Compound concentration 10.0 uM
[23] = target: SRSF protein kinase 2 (Homo sapiens) (UniProt P78362); conditions: Compound concentration 1000.0 nM
Sequence of SRSF protein kinase 2 (Homo sapiens) (P78362 whole entry, looked up): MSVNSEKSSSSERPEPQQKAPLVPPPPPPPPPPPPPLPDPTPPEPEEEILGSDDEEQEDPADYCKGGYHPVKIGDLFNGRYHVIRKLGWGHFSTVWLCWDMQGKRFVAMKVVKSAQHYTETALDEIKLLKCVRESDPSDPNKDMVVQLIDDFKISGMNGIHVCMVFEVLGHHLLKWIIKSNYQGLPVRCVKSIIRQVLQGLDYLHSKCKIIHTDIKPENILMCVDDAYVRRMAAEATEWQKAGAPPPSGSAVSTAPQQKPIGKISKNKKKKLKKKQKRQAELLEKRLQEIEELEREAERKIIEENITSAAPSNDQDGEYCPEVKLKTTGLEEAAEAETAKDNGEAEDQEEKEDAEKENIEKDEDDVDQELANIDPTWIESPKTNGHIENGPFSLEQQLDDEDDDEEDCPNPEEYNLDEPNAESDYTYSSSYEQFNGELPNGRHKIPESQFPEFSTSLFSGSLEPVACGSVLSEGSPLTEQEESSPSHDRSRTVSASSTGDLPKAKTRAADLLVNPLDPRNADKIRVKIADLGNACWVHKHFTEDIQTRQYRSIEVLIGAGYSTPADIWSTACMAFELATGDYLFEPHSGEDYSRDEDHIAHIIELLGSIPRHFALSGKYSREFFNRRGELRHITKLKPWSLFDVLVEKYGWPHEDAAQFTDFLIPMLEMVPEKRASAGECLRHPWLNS

[24] = target: Cyclin-dependent kinase-like 3 (Homo sapiens) (UniProt Q8IVW4); conditions: Compound concentration 1000.0 nM

Sequence of Protein kinase C theta type (Homo sapiens) (Q04759 whole entry, looked up): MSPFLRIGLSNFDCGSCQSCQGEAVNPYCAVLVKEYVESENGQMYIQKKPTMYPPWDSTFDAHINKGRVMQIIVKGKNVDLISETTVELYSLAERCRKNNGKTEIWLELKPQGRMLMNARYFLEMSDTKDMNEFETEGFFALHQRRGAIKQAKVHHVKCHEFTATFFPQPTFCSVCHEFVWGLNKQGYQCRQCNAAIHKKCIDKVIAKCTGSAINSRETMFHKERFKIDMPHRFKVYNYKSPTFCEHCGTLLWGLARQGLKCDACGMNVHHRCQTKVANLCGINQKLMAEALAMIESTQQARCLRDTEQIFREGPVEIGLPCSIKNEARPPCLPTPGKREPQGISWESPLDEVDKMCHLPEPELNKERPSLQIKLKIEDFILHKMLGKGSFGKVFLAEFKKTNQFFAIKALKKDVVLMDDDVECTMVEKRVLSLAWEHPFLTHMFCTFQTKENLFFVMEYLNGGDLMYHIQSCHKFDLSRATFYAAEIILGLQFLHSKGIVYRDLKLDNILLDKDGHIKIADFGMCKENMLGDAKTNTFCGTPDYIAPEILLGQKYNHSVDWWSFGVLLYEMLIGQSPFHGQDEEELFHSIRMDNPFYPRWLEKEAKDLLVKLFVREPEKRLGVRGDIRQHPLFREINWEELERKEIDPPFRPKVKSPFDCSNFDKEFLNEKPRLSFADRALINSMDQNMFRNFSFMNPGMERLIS
Sequence of Cyclin-dependent kinase 13 (Homo sapiens) (Q14004 whole entry, looked up): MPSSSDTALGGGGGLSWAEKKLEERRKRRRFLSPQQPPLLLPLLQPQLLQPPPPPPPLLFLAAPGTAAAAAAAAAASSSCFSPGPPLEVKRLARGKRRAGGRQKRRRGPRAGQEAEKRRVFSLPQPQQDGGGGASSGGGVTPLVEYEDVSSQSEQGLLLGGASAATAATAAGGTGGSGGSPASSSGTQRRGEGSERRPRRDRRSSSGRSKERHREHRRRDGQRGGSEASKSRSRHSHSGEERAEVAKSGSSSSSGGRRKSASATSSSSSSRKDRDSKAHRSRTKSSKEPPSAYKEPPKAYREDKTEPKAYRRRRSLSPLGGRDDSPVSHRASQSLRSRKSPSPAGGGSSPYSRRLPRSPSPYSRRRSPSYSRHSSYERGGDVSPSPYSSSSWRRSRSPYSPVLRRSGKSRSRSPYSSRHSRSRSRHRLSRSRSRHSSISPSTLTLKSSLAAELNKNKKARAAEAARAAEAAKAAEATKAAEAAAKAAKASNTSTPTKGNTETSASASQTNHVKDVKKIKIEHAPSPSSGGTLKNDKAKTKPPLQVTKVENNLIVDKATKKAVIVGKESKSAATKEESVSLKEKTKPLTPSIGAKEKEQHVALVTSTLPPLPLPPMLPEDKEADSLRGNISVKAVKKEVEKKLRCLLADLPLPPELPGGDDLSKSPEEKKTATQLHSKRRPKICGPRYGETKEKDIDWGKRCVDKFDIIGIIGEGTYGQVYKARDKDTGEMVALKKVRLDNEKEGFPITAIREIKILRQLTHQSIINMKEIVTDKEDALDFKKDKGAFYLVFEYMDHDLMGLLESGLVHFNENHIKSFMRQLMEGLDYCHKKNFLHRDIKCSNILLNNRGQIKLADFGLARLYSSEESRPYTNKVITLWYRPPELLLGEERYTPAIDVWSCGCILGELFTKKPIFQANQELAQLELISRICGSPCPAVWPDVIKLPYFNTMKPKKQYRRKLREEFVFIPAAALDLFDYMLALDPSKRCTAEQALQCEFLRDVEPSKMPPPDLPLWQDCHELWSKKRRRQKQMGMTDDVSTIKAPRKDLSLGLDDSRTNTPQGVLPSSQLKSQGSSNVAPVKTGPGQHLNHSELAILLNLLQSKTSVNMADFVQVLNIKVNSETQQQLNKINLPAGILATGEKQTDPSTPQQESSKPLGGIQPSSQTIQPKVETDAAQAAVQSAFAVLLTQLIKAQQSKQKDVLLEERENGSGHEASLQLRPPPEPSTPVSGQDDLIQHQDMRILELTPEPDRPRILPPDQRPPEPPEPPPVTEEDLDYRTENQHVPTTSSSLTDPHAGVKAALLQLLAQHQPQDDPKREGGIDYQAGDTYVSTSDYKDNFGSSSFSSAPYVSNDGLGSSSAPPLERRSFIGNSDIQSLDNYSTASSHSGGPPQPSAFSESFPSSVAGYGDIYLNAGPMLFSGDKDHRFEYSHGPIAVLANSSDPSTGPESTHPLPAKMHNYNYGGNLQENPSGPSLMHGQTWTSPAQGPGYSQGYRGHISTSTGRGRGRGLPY

Row | Compound | residual activity [1] [%] | residual activity [2] [%] | residual activity [3] [%] | residual activity [4] [%] | Ki ([5]; read-out: Ki) [nM] | residual activity [6] [%] | residual activity [7] [%] | residual activity [8] [%] | residual activity [9] [%] | inhibition [10] [%] | residual activity [11] [%] | residual activity [12] [%] | residual activity [13] [%] | residual activity [14] [%] | residual activity [15] [%] | residual activity [16] [%] | Ki ([17]; read-out: Ki) [nM] | residual activity [18] [%] | residual activity [19] [%] | residual activity [20] [%] | other results
1 | CNCc1ccccc1-c1csc([C@@H](C)Nc2nc(C)nc3cc(OC)c(OC)cc23)c1 [BAY-293] | 89 | 80 | 100 | 98 | 956 | 91 | 91 | 99 | 82 | 64.2 | 85 | 99 | 88 | 83 | 86 | 70 | 428 | 89 | 100 | 100 | Ki ([5]; read-out: pKi (converted)): 944 nM; inhibition (Histamine H4 receptor): 42.1%; residual activity [21]: 91%; inhibition [22]: 22.6%; residual activity [23]: 61%; residual activity [24]: 99%
2 | CNCc1ccccc1-c1csc([C@H](C)Nc2nc(C)nc3cc(OC)c(OC)cc23)c1 [BAY-294] | 93 | 87 | 100 | 100 | 524 | 100 | 97 | 100 | 100 | 82.9 | 99 | 100 | 99 | 100 | 87 | 88 | 454 | 100 | 100 | 100 | Ki ([17]; read-out: pKi (converted)): 437 nM; inhibition (Histamine H4 receptor): 67%; residual activity [21]: 100%; inhibition [22]: 49%; residual activity [23]: 52%; residual activity [24]: 97%
